Reference: ChEMBL document CHEMBL1201862, “PubChem BioAssay data set” (2004)
Calls of active or inactive are those of the source.

Tests used:
[1] = test system: BJ; test: cytotoxicity toward BJ-TERT fibroblasts, dose response, cell-based, RAS-independent, luminescence (AID 1933); type: functional; conditions: Homo sapiens
[2] = HEp-2 cell cytotoxicity, dose response, cytotoxicity control for RSV inhibitor project, HTS (AID 2410); type: functional; conditions: human respiratory syncytial virus
[3] = test system: BJ; test: cells; type: functional, cell-based; conditions: Homo sapiens
[4] = cytotoxicity toward DRD oncogenic fibroblasts, dose response, cell-based, non-viral oncogenic, luminescence (AID 1934); type: functional; conditions: Homo sapiens
[5] = test system: BJ; test: cytotoxicity toward Ras-transformed BJeLR fibroblasts, dose response, cell-based, alamar blue fluorescence, cherrypicked samples (AID 2631); type: functional; conditions: Homo sapiens;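 further: confirmatory dose-response assay in RAS-dependent BJ fibroblasts engineered with TERT, LT and ST, with cytotoxicity read by fluorescence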
[6] = target: Adenosylmethionine-8-amino-7-oxononanoate aminotransferase (Mycobacterium tuberculosis, UniProt P9WQ81); test: Mycobacterium tuberculosis BioA enzyme inhibitor Measured in Biochemical System Using Plate Reader - 2163-02_Inhibitor_Dose_CherryPick_Activity.; type: functional, Mycobacterium tuberculosis UT205
[7] = AlphaScreen signal interference compounds, dose response, artefact control for ARNT-TACC3 interaction inhibitor project, biochemical, luminescence, cherry-pick (AID 651705); type: functional;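 further: AlphaScreen bead proximity signal that flags compounds interfering with the detection technology; potency reflects signal decrease which marks the compound as an assay artifact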
[8] = target: Nonstructural protein 1 (Influenza A virus, UniProt Q194T2); type: functional, Influenza A virus (A/California/07/2009(H1N1))
[9] = target: Protein Wnt-3a (Mus musculus, UniProt P27467); test: Wnt3a-driven reporter signaling inhibition, dose response, selectivity assay for Gli-SUFU antagonist project, Wnt-LIGHT cells, luminescence (AID 651570); type: functional; conditions: read-out: IC50_Mean;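 further: Wnt-LIGHT reporter cells stimulated with conditioned medium from Wnt3a-producing cells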
[10] = control 3'UTR Renilla luciferase suppression, dose response, counter-screen for Shn3 inhibitor project, cell-based, Clone20-Shn3RL, cherry-picked (AID 624133); type: functional
[11] = HepG2 cell cytotoxicity, dose response, cytotoxicity control for Shn3 inhibitor project, CellTiter-Glo, cherry-picked (AID 624134); type: functional, cell-based
[12] = Shn3 3'UTR reporter inhibitors, dose response, cell-based, Clone20 osteoblasts, firefly luciferase, cherry-picked (AID 624132); type: functional;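 further: firefly luciferase luminescence from reporter carrying the Shn3 3'UTR in osteoblasts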
[13] = test system: HEK293; test: cells; type: functional, cell-based; conditions: Homo sapiens
[14] = test system: HEK293; test: NOD2 signaling inhibitors in MDP-stimulated cells, cell-based, uHTS, luminescence (AID 2001); type: functional; conditions: Homo sapiens
[15] = test system: HEK293; test: NOD1 signaling inhibitors, primary screen, cell-based, luminescence, uHTS (AID 1578); type: functional; conditions: Homo sapiens
[16] = test system: BJ; test: cytotoxicity toward BJ-TERT-LT-ST fibroblasts, dose response, cell-based, RAS-independent, luminescence (AID 1935); type: functional; conditions: Homo sapiens;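 further: BJ fibroblasts immortalized with TERT plus LT and ST oncogenes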
[17] = test system: HEK293; test: cells; type: functional, cell-based; conditions: Homo sapiens; remark: listed apart in the source

Adenosylmethionine-8-amino-7-oxononanoate aminotransferase, sequence (P9WQ81 whole entry): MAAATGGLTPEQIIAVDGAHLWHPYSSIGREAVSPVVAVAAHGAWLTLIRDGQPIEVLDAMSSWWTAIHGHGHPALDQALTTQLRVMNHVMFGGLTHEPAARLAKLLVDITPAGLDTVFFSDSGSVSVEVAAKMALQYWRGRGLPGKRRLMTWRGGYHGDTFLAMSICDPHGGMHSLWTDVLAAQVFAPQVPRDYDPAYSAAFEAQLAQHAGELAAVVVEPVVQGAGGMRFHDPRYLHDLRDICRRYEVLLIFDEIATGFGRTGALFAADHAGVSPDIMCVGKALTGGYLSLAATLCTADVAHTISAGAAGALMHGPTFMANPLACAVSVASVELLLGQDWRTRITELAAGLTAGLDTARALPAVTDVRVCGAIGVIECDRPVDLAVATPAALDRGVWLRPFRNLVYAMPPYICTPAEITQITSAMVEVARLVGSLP
Nonstructural protein 1, sequence (Q194T2 whole entry): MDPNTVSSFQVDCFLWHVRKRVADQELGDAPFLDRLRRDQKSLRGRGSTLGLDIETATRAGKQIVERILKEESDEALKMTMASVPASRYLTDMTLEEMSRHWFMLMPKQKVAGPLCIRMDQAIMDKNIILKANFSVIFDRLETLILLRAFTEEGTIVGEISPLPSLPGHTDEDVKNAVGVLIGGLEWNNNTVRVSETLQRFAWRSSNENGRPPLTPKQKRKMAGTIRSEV
Protein Wnt-3a, sequence (P27467 whole entry): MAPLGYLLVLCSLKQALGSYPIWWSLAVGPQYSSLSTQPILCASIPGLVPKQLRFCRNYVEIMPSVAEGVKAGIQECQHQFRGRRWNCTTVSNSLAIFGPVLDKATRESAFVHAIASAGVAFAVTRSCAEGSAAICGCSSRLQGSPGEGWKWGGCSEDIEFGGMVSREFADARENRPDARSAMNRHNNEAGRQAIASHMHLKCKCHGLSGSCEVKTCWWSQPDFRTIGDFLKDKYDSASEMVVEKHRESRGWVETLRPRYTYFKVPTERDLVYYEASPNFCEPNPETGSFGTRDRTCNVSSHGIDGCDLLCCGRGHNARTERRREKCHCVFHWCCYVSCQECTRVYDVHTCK

For `C[C@@H]1C[C@H]2OC(=O)C3(CO3)[C@H]2[C@H](O)[C@]2(C)C(=O)C3OC3[C@@H]12` (some centres not stated), the EC50 [1] was 17 µM (active), the CC50 [2] was 15.9 µM (active) and the EC50 [3] was 14.3 µM (active). For the same compound, the EC50 [4] was 14.2 µM (active) and the EC50 [5] was > 133 µM (inactive).

For `O=C1CCCc2c1cc(C(=O)NCc1ccco1)c(=O)n2-c1ccc(Cl)cc1`, the AC50 [6] was 3.08 µM (active).

For `Cc1ccc(-n2ncc3c2CC(C)(C)CC3NC(=O)CCc2cccnc2)cc1` (configuration not stated), the AC50 [6] was 9.11 µM (active).

For `NC(=NOC(=O)Cc1ccc([N+](=O)[O-])cc1)c1ccccn1`, the AC50 [7] was 78.8 µM (active) and the IC50 [8] was 32.1 µM (active).

In the case of `CC(Sc1nc2ccccc2c(=O)n1C)C(=O)NC1CCCCC1C` (configuration not stated), the IC50 [9] is reported as 4.15 µM (active), the AC50 [10] is reported as 3.78 µM (active) and the AC50 [11] is reported as 26.2 µM (active). The AC50 [12] was 3.46 µM (active).

In the case of `Cc1ccc(Nc2nc(N)nc(CCl)n2)c(C)c1`, the EC50 [1] is reported as < 0.12 µM (active), the EC50 [3] is reported as 1.05 µM (active) and the IC50 [13] is reported as 12.8 µM (active). For the same compound, the IC50 [14] was 10.5 µM (inactive), the EC50 [15] was 13.9 µM (active) and the EC50 [4] was 0.423 µM (active). For the same compound, the EC50 [16] was 10.4 µM (active), the EC50 [5] was 4.45 µM (active) and the IC50 [17] was > 20 µM (inactive).
